Eight molecules from patent US8377435B2, “Antibody induced cell membrane wounding” (The Board of Trustees of the Leland Stanford Junior …, priority 2004, dated 2013) can be followed below.

Format in all cases: cell-based, human
Assay [1] deals with Nalm 6. Nature of the assay: In vitro cytotoxicity of mAb216 in combination with chemotherapeutic agents, Nalm 6. The conditions noted are these: for Live cells: Nalm 6, 48 h. On the procedure: (§1) Three cell lines which have been derived from ALL blasts of different genotype and phenotype, Nalm 6, REH, and SUPB15, were incubated with mAb 216 alone or in combination with vincristine (VCR), for 48 hours at 37° C.
(§2) In vitro cytotoxicity of mAb216 in combination with single chemotherapeutic agents was tested. Three cell lines which have been derived from ALL blasts of different genotype and phenotype, Nalm 6, REH, and SUPB15, were incubated with mAb 216 alone or in combination with vincristine (VCR), daunorubicin (DNR), or L-asparaginase (ASPR).

In assay [2] the test system is SUP B15. Nature of the assay: In vitro cytotoxicity of mAb216 in combination with chemotherapeutic agents, SUP B15. The conditions noted are these: SUP B15, 48 h. On the procedure:
as §1, §2

Assay [3] deals with REH. Nature of the assay: In vitro cytotoxicity of mAb216 in combination with chemotherapeutic agents, REH. The conditions noted are these: 48 h. On the procedure: as §1, §2
The test system of assay [4] is Nalm-6 cells. Kind of assay: Cell viability assay using PI staining and forward scatter, Nalm-6. The settings on record: for viability (percent viable cells): jasplakinolide 3 μgs/ml or cytochalasin 5 μgs/ml 2 hr at 37° C; for cell viability: caspase inhibitors 10 μM 2 hr at 37° C before treatment with mAb 216. Here is the method: The integrity of the plasma membrane was assessed by the ability of cells to exclude propidium iodide (PI, Sigma, St. Louis, Mo.). The level of PI incorporation was quantitated by flow cytometry on FACScan (Becton-Dickinson, San Jose Calif.) interfaced with VersatermPro and FlowJo software at Stanford's FACS facility. PI-negative cells with normal size as measured by forward scatter signals were considered live cells.
Briefly, cells were treated as specified in each experiment and resuspended in PBS with 3% FCS and 10 μgs/ml of PI. In experiments where toxicity was evaluated in Ca-free medium, cells were resuspended in appropriate media with or without calcium to which 10 μgs/ml PI was added. Since previous studies have shown that mAb 216-mediated toxicity is remarkably […] at lower temperatures (Bhat, N. M., et al. (1996) Clin. Exp. Immunol 105, 183), precautions were taken to keep all media and cells at 37° C. and the centrifuge at room temperature.
Cytochalasin was obtained from Sigma and jasplakinolide was obtained from Molecular Probes (Eugene, Oreg.). Caspase inhibitors, Ac-IETD-CHO and Ac-DEVD-CHO were obtained from PharMingen (San Diego, Calif.). Nalm-6 cells (1×10^6 cells/ml) were treated with jasplakinolide (3 μgs/ml), cytochalasin (5 μgs/ml), or caspase inhibitors (10 μM) for 2 hr at 37° C. before treatment with mAb 216. Control samples with equivalent amounts of DMSO were set in parallel. Cells were then exposed to 25 μg of mAb 216 or control Ab and analyzed by flow cytometry.
Since exocytosis of lysosomes is known to be a calcium dependent phenomenon (Miyake, K., and P. L. McNeil (1995) J. Cell Biol. 131, 1737; Bi, G. Q., et al. (1995) J. Cell Biol. 131, 1747), membrane wounding by mAb 216 and repair of the wound was tested in calcium free and normal calcium conditions. The cell viability of Nalm-6 cells when treated with two VH4-34 encoded mAbs, mAb 216 at 50, 25 and 12.5 ng/ml concentrations, and Y2K at 50 ng/ml, was tested in the presence of media with and without calcium.
Brefeldin-A was obtained from Sigma. Nalm-6 cells (1×10^6 cells/ml) were treated with BFA (25 μg/ml) for 2 hr at 37° C. before treatment with mAb 216. Control samples with equivalent amounts of DMSO were set in parallel. Cells were then exposed to 25 μg of mAb 216 or control Ab and analyzed by flow cytometry.
The in vitro cytotoxicity of mAb 216 to Nalm-6 cells was evaluated using PI staining and viability assessment (percent live cells) as a function of the amount of mAb 216 present. The amount of mAb 216 needed to achieve 50% and 80% viability in Nalm-6 cells with and without a crosslinking agent (a secondary mAb, e.g., anti-human lambda) is shown in Table 1, expressed in nanograms antibody required to achieve the indicated level of cytotoxicity, as determined by PI entry into cells.

Values joined by “and” are separate entries in the source; they are usually repeats but may differ in a detail not shown here. Equal entries are not always repeated.

Turning to `COc1cccc2c1C(=O)c1c(O)c3c(c(O)c1C2=O)C[C@@](O)(C(C)=O)C[C@@H]3O[C@H]1C[C@H](N)[C@H](O)[C@H](C)O1` [DNR, Daunorubicin], the Live cells in assay [1] (DNR 5 ng/ml) was 4.3 × 10^5. The “Live cells × 10^5” value in assay [2] (DNR 4 ng/ml) is on record as 0.44 × 10^5.

For `CC[C@]1(O)C[C@H]2CN(CCc3c([nH]c4ccccc34)[C@@](C(=O)OC)(c3cc4c(cc3OC)N(C=O)[C@H]3[C@@](O)(C(=O)OC)[C@H](OC(C)=O)[C@]5(CC)C=CCN6CC[C@]43[C@@H]65)C2)C1` [VCR, Vincristine], in assay [3] (VCR 2 ng/ml), the live cell count was 4.2 × 10^5 and 7.7 × 10^5. The Live cells in assay [1] (VCR 0.2 ng/ml) is listed as 13 × 10^5; in assay [1] (VCR 2 ng/ml), 5 × 10^5. The “cell death due to treatment with vincristine alone” value in assay [1] (vincristine 0.2 ng/ml, 48 hours at 37° C) is listed as “no cell death occurred”. The “Live cells × 10^5” value in assay [2] (VCR 2 ng/ml) is reported as 2.8 × 10^5.

In the case of cytochalasin, the “viability (percent viable cells)” value in assay [4] (then control antibodies) is on record as “did not show a decrease in viability”.

Turning to `C/C1=C\[C@H](C)C[C@H](C)OC(=O)C[C@H](c2ccc(O)cc2)NC(=O)[C@@H](Cc2c(Br)[nH]c3ccccc23)N(C)C(=O)[C@H](C)NC(=O)[C@@H](C)C1` [jasplakinolide], the “viability (percent viable cells)” value in assay [4] (then control antibodies) is “did not show a decrease in viability”.

As to `C[C@H]1CCC/C=C/[C@@H]2C[C@H](O)C[C@H]2[C@H](O)/C=C/C(=O)O1` [BFA, Brefeldin A], in assay [4] (BFA 25 μg/ml 2 hr at 37° C, then control antibodies), the viability of cells entry is reported as “no effect on the viability”.

Take Ac-DEVD-CHO: the cell viability entry in assay [4] is reported as “did not alter cell viability”.

Turning to Ac-IETD-aldehyde, the cell viability result in assay [4] is reported as “did not alter cell viability”.

B1: Asparaginase (protein, UniProt P00805 23-348, looked up)
L-asparaginase 2: LPNITILATGGTIAGGGDSATKSNYTVGKVGVENLVNAVPQLKDIANVKGEQVVNIGSQDMNDNVWLTLAKKINTDCDKTDGFVITHGTDTMEETAYFLDLTVKCDKPVVMVGAMRPSTSMSADGPFNLYNAVVTAADKASANRGVLVVMNDTVLDGRDVTKTNTTDVATFKSVNYGPLGYIHNGKIDYQRTPARKHTSDTPFDVSKLNELPKVGIVYNYANASDLPAKALVDAGYDGIVSAGVGNGNLYKSVFDTLATAAKTGTAVVRSSRVPTGATTQDAEVDDAKYGFVASGTLNPQKARVLLQLALTQTKDPQQIQQIFNQY
notes: L-asparaginase, chemotherapeutic enzyme
On to B1, for which the live cell count in assay [3] (ASPR 0.8 U/ml) is given as 6.2 × 10^5. For the same molecule, the Live cells in assay [1] (ASPR 0.8 U/ml) is on record as 9.2 × 10^5. Also, the “Live cells × 10^5” value in assay [2] (ASPR 0.8 U/ml) is given as 3 × 10^5.
